Test results published in patent US8592172B2, “Bioluminescent assays using cyanobenzothiazole compounds” (Promega Corporation, priority 2010, dated 2013).

System: CYP1A2
Test: Non-lytic assay with rat hepatocytes, compound 3019
Format: cell-based
Conditions: 10 nM TCDD 48 hours, 3 μM compound 3019

Structure (SMILES): Clc1cc2c(cc1Cl)Oc1cc(Cl)c(Cl)cc1O2 [TCDD, 2,3,7,8-tetrachlorodibenzo-p-dioxin]
- change of basal signal (CYP1A2 induction): significantly increased
